The text below walks through data of article PMC314469, “Protein Interaction Networks by Proteome Peptide Scanning” (PLoS Biology, 2004).

This experiment deals with Myo5 SH3 domain. Nature of the experiment: SPOT analysis of cellulose-bound peptides (WISE), Myo5 SH3 domain (Dataset S4). Format: binding, Saccharomyces cerevisiae. To be noted: SPOT analysis of cellulose-bound peptides probed with Myo5 SH3 domain; normalized value.

As to SLTSLPPPPPPQFS, the “The normalized value in BLU units (SPOT analysis, Myo5 SH3)” value is recorded as 7261.1 BLU.
